Experimental data: patent publication US10294202B2, “Pyrrolidinones as herbicides” (FMC Corporation, priority 2013, dated 2019)

Assays:
lambsquarters = assay: Test E preemergence herbicide test; type: in vivo, Chenopodium album; parameters: key: 0 = no effect, 100 = complete control
Text: (§1) Seeds of plant species selected from corn (Zea mays), soybean (Glycine max), velvetleaf (Abutilon theophrasti), lambsquarters (Chenopodium album), wild poinsettia (Euphorbia heterophylla), pigweed, palmer (palmer pigweed, Amaranthus palmeri), waterhemp (common waterhemp, Amaranthus rudis), surinam grass (Brachiaria decumbens), crabgrass, large (large crabgrass, Digitaria sanguinalis), crabgrass, Brazil (Brazilian crabgrass, Digitaria horizontalis), panicum, fall (fall panicum, Panicum dichotomiflorum), foxtail, giant (giant foxtail, Setaria faberii), foxtail, green (green foxtail, Setaria viridis), goosegrass (Eleusine indica), johnsongrass (Sorghum halepense), ragweed (common ragweed, Ambrosia elatior), barnyardgrass (Echinochloa crus-galli), sandbur (southern sandbur, Cenchrus echinatus), arrowleaf […] rhombifolia), ryegrass, Italian (Italian ryegrass, Lolium multiflorum), dayflower, VA (Virginia dayflower, Commelina virginica), field bindweed (Convolvulus arvensis), morningglory (Ipomoea coccinea), nightshade (eastern black nightshade, Solanum ptycanthum), kochia (Kochia scoparia), nutsedge, yellow (yellow nutsedge, Cyperus esculentus), cocklebur (common cocklebur, Xanthium strumarium), smartweed (ladysthumb smartweed, Polygonum Persicaria) and beggarticks (hairy beggarticks, Bidens pilosa), were planted into a silt loam soil and treated preemergence with test chemicals formulated in a non-phytotoxic solvent mixture which included a surfactant. Treated plants and controls were maintained in a greenhouse for 21 days, after which time all species were compared to controls and visually evaluated. Plant response ratings, summarized in Table E, are based on a scale of 0 to 100 where 0 is no effect and 100 is complete control. A dash (-) response means no test result.

crabgrass, large = assay: Test E preemergence herbicide test; type: in vivo, Digitaria sanguinalis; parameters: key: 0 = no effect, 100 = complete control
Text: as §1

barnyardgrass = assay: Test E preemergence herbicide test; type: in vivo, Echinochloa crus-galli; parameters: key: 0 = no effect, 100 = complete control
Text: as §1

ryegrass, Italian = assay: Test E preemergence herbicide test; type: in vivo, Lolium multiflorum; parameters: key: 0 = no effect, 100 = complete control
Text: as §1

field bindweed = assay: Test E preemergence herbicide test; type: in vivo, Convolvulus arvensis; parameters: key: 0 = no effect, 100 = complete control
Text: as §1

morningglory = assay: Test E preemergence herbicide test; type: in vivo, Ipomoea coccinea; parameters: key: 0 = no effect, 100 = complete control
Text: as §1

nightshade = assay: Test E preemergence herbicide test; type: in vivo, Solanum ptycanthum; parameters: key: 0 = no effect, 100 = complete control
Text: as §1

foxtail, green = assay: Test D pre-/postemergence herbicide test; type: in vivo, Setaria viridis; settings: Postemergence, Foxtail, Green, scale 0 to 100
Method in brief: (§2)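 Visual 0–100 ratings (0 = no effect, 100 = complete control) versus controls, made 7 to 21 days after treatment in a controlled growth environment. Test chemicals in surfactant-containing non-phytotoxic solvent were applied preemergence to silt loam-sown seeds and postemergence to plants 2–18 cm tall.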

barley, spring = assay: Test D pre-/postemergence herbicide test; type: in vivo, Hordeum vulgare; settings: Postemergence, Barley, Spring, scale 0 to 100
Method in brief: as §2

barley, winter = assay: Test D pre-/postemergence herbicide test; type: in vivo, Hordeum vulgare; settings: Postemergence, Barley, Winter, scale 0 to 100
Method in brief: as §2

mustard, wild = assay: Test D pre-/postemergence herbicide test; type: in vivo, Sinapis arvensis; settings: Postemergence, Mustard, Wild, scale 0 to 100
Method in brief: as §2

SMILES: O=C1NCC(c2ccc(Cl)c(Cl)c2)C1C(=O)Nc1ccccc1F (racemic) [Compound 14]
- Plant response rating, Lambsquarters (lambsquarters; 16 g ai/ha): 0
- Plant response rating, Lambsquarters (lambsquarters; 31 g ai/ha): 0
- Plant response rating, Lambsquarters (lambsquarters; 62 g ai/ha): 0
- Plant response rating, Lambsquarters (lambsquarters; 125 g ai/ha): 50
- Plant response rating, Lambsquarters (lambsquarters; 250 g ai/ha): 70
- Plant response rating, Crabgrass, Large (crabgrass, large; 16 g ai/ha): 0
- Plant response rating, Crabgrass, Large (crabgrass, large; 62 g ai/ha): 25
- Plant response rating, Crabgrass, Large (crabgrass, large; 125 g ai/ha): 90
- Plant response rating, Crabgrass, Large (crabgrass, large; 250 g ai/ha): 90
- Plant response rating, Barnyardgrass (barnyardgrass; 16 g ai/ha): 0
- Plant response rating, Barnyardgrass (barnyardgrass; 31 g ai/ha): 0
- Plant response rating, Barnyardgrass (barnyardgrass; 62 g ai/ha): 0
- Plant response rating, Barnyardgrass (barnyardgrass; 125 g ai/ha): 40
- Plant response rating, Barnyardgrass (barnyardgrass; 250 g ai/ha): 75
- Plant response rating, Ryegrass, Italian (ryegrass, Italian; 16 g ai/ha): 0
- Plant response rating, Ryegrass, Italian (ryegrass, Italian; 31 g ai/ha): 0
- Plant response rating, Ryegrass, Italian (ryegrass, Italian; 62 g ai/ha): 0
- Plant response rating, Ryegrass, Italian (ryegrass, Italian; 125 g ai/ha): 0
- Plant response rating, Ryegrass, Italian (ryegrass, Italian; 250 g ai/ha): 0
- Plant response rating, Field Bindweed (field bindweed; 16 g ai/ha): 0
- Plant response rating, Field Bindweed (field bindweed; 31 g ai/ha): 0
- Plant response rating, Field Bindweed (field bindweed; 62 g ai/ha): 0
- Plant response rating, Field Bindweed (field bindweed; 125 g ai/ha): 0
- Plant response rating, Field Bindweed (field bindweed; 250 g ai/ha): 0
- Plant response rating, Morningglory (morningglory; 16 g ai/ha): 0
- Plant response rating, Morningglory (morningglory; 31 g ai/ha): 0
- Plant response rating, Morningglory (morningglory; 125 g ai/ha): 0
- Plant response rating, Morningglory (morningglory; 250 g ai/ha): 0
- Plant response rating, Nightshade (nightshade; 16 g ai/ha): 0
- Plant response rating, Nightshade (nightshade; 31 g ai/ha): 0
- Plant response rating, Nightshade (nightshade; 62 g ai/ha): 30
- Plant response rating, Nightshade (nightshade; 125 g ai/ha): 50
- Plant response rating, Nightshade (nightshade; 250 g ai/ha): 70

SMILES: O=C1NCC(c2ccc(OC(F)F)cc2)C1C(=O)Nc1cccc(F)c1F (racemic) [Compound 350]
- Plant response rating, Lambsquarters (lambsquarters; 31 g ai/ha): 80
- Plant response rating, Lambsquarters (lambsquarters; 62 g ai/ha): 60
- Plant response rating, Lambsquarters (lambsquarters; 125 g ai/ha): 98
- Plant response rating, Lambsquarters (lambsquarters; 250 g ai/ha): 95
- Plant response rating, Crabgrass, Large (crabgrass, large; 31 g ai/ha): 50
- Plant response rating, Crabgrass, Large (crabgrass, large; 62 g ai/ha): 70
- Plant response rating, Crabgrass, Large (crabgrass, large; 125 g ai/ha): 98
- Plant response rating, Crabgrass, Large (crabgrass, large; 250 g ai/ha): 98
- Plant response rating, Barnyardgrass (barnyardgrass; 31 g ai/ha): 15
- Plant response rating, Barnyardgrass (barnyardgrass; 62 g ai/ha): 40
- Plant response rating, Barnyardgrass (barnyardgrass; 125 g ai/ha): 60
- Plant response rating, Barnyardgrass (barnyardgrass; 250 g ai/ha): 98
- Plant response rating, Ryegrass, Italian (ryegrass, Italian; 31 g ai/ha): 0
- Plant response rating, Ryegrass, Italian (ryegrass, Italian; 62 g ai/ha): 25
- Plant response rating, Ryegrass, Italian (ryegrass, Italian; 125 g ai/ha): 20
- Plant response rating, Ryegrass, Italian (ryegrass, Italian; 250 g ai/ha): 35
- Plant response rating, Field Bindweed (field bindweed; 31 g ai/ha): 40
- Plant response rating, Field Bindweed (field bindweed; 62 g ai/ha): 60
- Plant response rating, Field Bindweed (field bindweed; 125 g ai/ha): 65
- Plant response rating, Field Bindweed (field bindweed; 250 g ai/ha): 60
- Plant response rating, Morningglory (morningglory; 31 g ai/ha): 0
- Plant response rating, Morningglory (morningglory; 62 g ai/ha): 0
- Plant response rating, Morningglory (morningglory; 125 g ai/ha): 0
- Plant response rating, Morningglory (morningglory; 250 g ai/ha): 0
- Plant response rating, Nightshade (nightshade; 31 g ai/ha): 0
- Plant response rating, Nightshade (nightshade; 62 g ai/ha): 0
- Plant response rating, Nightshade (nightshade; 125 g ai/ha): 50
- Plant response rating, Nightshade (nightshade; 250 g ai/ha): 80

SMILES: O=C1NCC(c2ccc(F)c(F)c2)C1C(=O)Nc1cccc(F)c1F (centres unmarked) [Compound 17, N-(2,3-difluorophenyl)-4-(3,4-difluorophenyl)-2-oxo-3-pyrrolidinecarboxamide]
- Plant response rating (foxtail, green; 16 g ai/ha): 0
- Plant response rating (foxtail, green; 31 g ai/ha): 0
- Plant response rating (foxtail, green; 62 g ai/ha): 0
- Plant response rating (foxtail, green; 125 g ai/ha): 0
- Plant response rating (foxtail, green; 250 g ai/ha): 0
- Plant response rating (barley, spring; 16 g ai/ha): 0
- Plant response rating (barley, spring; 31 g ai/ha): 0
- Plant response rating (barley, spring; 62 g ai/ha): 0
- Plant response rating (barley, spring; 125 g ai/ha): 0
- Plant response rating (barley, spring; 250 g ai/ha): 0
- Plant response rating (barley, winter; 16 g ai/ha): 0
- Plant response rating (barley, winter; 31 g ai/ha): 0
- Plant response rating (barley, winter; 62 g ai/ha): 0
- Plant response rating (barley, winter; 125 g ai/ha): 0
- Plant response rating (barley, winter; 250 g ai/ha): 0
- Plant response rating (mustard, wild; 16 g ai/ha): 0
- Plant response rating (mustard, wild; 31 g ai/ha): 0
- Plant response rating (mustard, wild; 62 g ai/ha): 10
- Plant response rating (mustard, wild; 125 g ai/ha): 30
- Plant response rating (mustard, wild; 250 g ai/ha): 30
- Plant response rating, Lambsquarters (lambsquarters; 16 g ai/ha): 0
- Plant response rating, Lambsquarters (lambsquarters; 31 g ai/ha): 0
- Plant response rating, Lambsquarters (lambsquarters; 62 g ai/ha): 0
- Plant response rating, Lambsquarters (lambsquarters; 125 g ai/ha): 0
- Plant response rating, Lambsquarters (lambsquarters; 250 g ai/ha): 0
- Plant response rating, Crabgrass, Large (crabgrass, large; 16 g ai/ha): 15
- Plant response rating, Crabgrass, Large (crabgrass, large; 31 g ai/ha): 20
- Plant response rating, Crabgrass, Large (crabgrass, large; 62 g ai/ha): 70
- Plant response rating, Crabgrass, Large (crabgrass, large; 125 g ai/ha): 75
- Plant response rating, Crabgrass, Large (crabgrass, large; 250 g ai/ha): 95
- Plant response rating, Barnyardgrass (barnyardgrass; 16 g ai/ha): 0
- Plant response rating, Barnyardgrass (barnyardgrass; 31 g ai/ha): 0
- Plant response rating, Barnyardgrass (barnyardgrass; 62 g ai/ha): 80
- Plant response rating, Barnyardgrass (barnyardgrass; 125 g ai/ha): 95
- Plant response rating, Barnyardgrass (barnyardgrass; 250 g ai/ha): 98
- Plant response rating, Ryegrass, Italian (ryegrass, Italian; 16 g ai/ha): 0
- Plant response rating, Ryegrass, Italian (ryegrass, Italian; 31 g ai/ha): 0
- Plant response rating, Ryegrass, Italian (ryegrass, Italian; 62 g ai/ha): 0
- Plant response rating, Ryegrass, Italian (ryegrass, Italian; 125 g ai/ha): 0
- Plant response rating, Ryegrass, Italian (ryegrass, Italian; 250 g ai/ha): 0
- Plant response rating, Field Bindweed (field bindweed; 16 g ai/ha): 0
- Plant response rating, Field Bindweed (field bindweed; 31 g ai/ha): 0
- Plant response rating, Field Bindweed (field bindweed; 62 g ai/ha): 0
- Plant response rating, Field Bindweed (field bindweed; 125 g ai/ha): 0
- Plant response rating, Field Bindweed (field bindweed; 250 g ai/ha): 0
- Plant response rating, Nightshade (nightshade; 16 g ai/ha): 0
- Plant response rating, Nightshade (nightshade; 62 g ai/ha): 0
- Plant response rating, Nightshade (nightshade; 125 g ai/ha): 0
- Plant response rating, Nightshade (nightshade; 250 g ai/ha): 0
